What is called Emax is the maximal effect, on the per cent scale that the assay sets. Usually EC50 stands for the midpoint of the concentration-response curve.

In experiment [1] the target is T1, Kir6.2-GFP + SUR1 (Homo sapiens, UniProt Q14654). In words: ANAP fluorescence quenching in excised patches (patch-clamp fluorometry). It counts as binding. Details: full length, fully ANAP-labelled Kir6.2 protein was produced and successfully trafficked to the membrane in the presence of SUR1; expressed in transfected cells; host or cells: HEK-293T. The settings on record: excised patches (PCF), Hill fit. As to the method:
Currents were measured as described above.
ANAP bleaching was corrected as for the unroofed binding experiments with Equation 1 (Figure 2—figure supplement 3A). Due to the lower signal-to-noise ratio for PCF compared to the unroofed membranes, we performed experiments from both high-to-low and low-to-high TNP-ATP concentrations to minimise artifacts from our bleaching corrections.

Experiment [2] concerns the target T1, Kir6.2-GFP + SUR1. In words: Bayesian MWC-type model fits to combined patch-clamp fluorometry data. It is filed as biochemical. Details: full length, fully ANAP-labelled Kir6.2 protein was produced and successfully trafficked to the membrane in the presence of SUR1; expressed in transfected cells; host or cells: HEK-293T. From the text:
Our simultaneous binding and current measurements were well fit with a Monod-Wyman-Changeux (MWC)-type model (Figure 2D,E; [Monod et al., 1965]) which has been previously proposed to explain KATP channel inhibition ([Enkvetchakul and Nichols, 2003]; [Craig et al., 2008]; [Vedovato et al., 2015]). In our MWC-type model, each ligand binding event ( KA ) is independent and each bound ligand favours the closed state by the same factor ( D ). Simultaneous measurement of binding (fluorescence) and gating (current) allowed us to obtain well constrained fits to our model. To obtain free parameter ( L , KA , D ) estimates and verify that each parameter was well and uniquely determined, we employed a Bayesian Markov chain Monte Carlo (MCMC) method previously employed by [Hines et al. (2014)]. Using this approach, we constructed posterior probability distributions for the free parameters of our MWC-type model (Figure 2F, Table 3). […] Our estimate of L was quite low and broadly distributed. We repeated our fits with L fixed to a value consistent with previous single channel measurements (0.8, Popen=0.45; [John et al., 1998]; [Enkvetchakul et al., 2000]; [Ribalet et al., 2006]). This had only a very small effect on our estimates of D and KA (Figure 2—figure supplement 1). The broad distribution of L in our fit may represent current rundown which occurs during our patch-clamp recordings and is expected to affect the open-closed equilibrium.
In addition to the full MWC-type model we considered alternate models (Figure 2—figure supplement 2). These included a model in which only the first binding event influences the open-closed equilibrium of the channel (single-binding model; Figure 2—figure supplement 2B, Table 3), and an MWC-style model with an additional parameter C to allow for direct negative cooperativity between binding sites (negative cooperativity model; Figure 2—figure supplement 2C, Table 3). The single-binding model yielded very similar parameter estimates to our full MWC-type model (Figure 2—figure supplement 2D, Table 3). This is a consequence of D being so low that even in the MWC-type model most channels are closed when only a single nucleotide is bound. The cooperative model improved our fits, but not enough to justify the inclusion of an additional free parameter (see Discussion).
The MWC-type models considered (Figure 2 and Figure 2—figure supplement 2) were formulated as follows:(3) F/Fmax=KA[TNPATP](1+KA[TNPATP])^3+LDKA[TNPATP](1+DKA[TNPATP])^3/(1+KA[TNPATP])^4+L(1+DKA[TNPATP])^4 (4) open channels/total channels=L(1+DKA[TNPATP])^4/(1+KA[TNPATP])^4+L(1+DKA[TNPATP])^4
The first was similar to the MWC-type model, except that the channels close after one molecule of TNP-ATP binding with subsequent binding events having no effect.(7) F/Fmax=LDKA[TNPATP](1+3KA[TNPATP]+3KA2[TNPATP]^2+KA3[TNPATP]^3)+KA[TNPATP](1+KA[TNPATP])^3/L(1+4DKA[TNPATP]+6DKA2[TNPATP]^2+4DKA3[TNPATP]^3+DKA4[TNPATP]^4)+(1+KA[TNPATP])^4 (8) I/Imax=L(1+4DKA[TNPATP]+6DKA2[TNPATP]^2+4DKA3[TNPATP]^3+DKA4[TNPATP]^4)/L(1+4DKA[TNPATP]+6DKA2[TNPATP]^2+4DKA3[TNPATP]^3+DKA4[TNPATP]^4)+(1+KA[TNPATP])^4⋅1+L/L
The second alternate model was the same as the full MWC model, but with an additional term C describing binding cooperativity between Kir6.2 subunits.(9) F/Fmax=LDKA[TNPATP](1+3CDKA[TNPATP]+3C^2D^2KA2[TNPATP]^2+C^3D^3KA3[TNPATP]^3)+KA[TNPATP](1+3CKA[TNPATP])+3C^2KA2[TNPATP]^2+C^3KA3[TNPATP]^3)/L(1+4DKA[TNPATP]+6CD^2KA2[TNPATP]^2+4C^2D^3KA3[TNPATP]^3+C^3D^4KA4[TNPATP]^4)+1+4KA[TNPATP]+6CKA2[TNPATP]^2+4C^2KA3[TNPATP]^3+C^3KA4[TNPATP]^4 (10) I/Imax=L(1+4DKA[TNPATP]+6CD^2KA2[TNPATP]^2+4C^2D^3KA3[TNPATP]^3+C^3D^4KA4[TNPATP]^4)/L(1+4DKA[TNPATP]+6CD^2KA2[TNPATP]^2+4C^2D^3KA3[TNPATP]^3+C^3D^4KA4[TNPATP]^4)+1+4KA[TNPATP]+6C^2KA2[TNPATP]^2+4C^2KA3[TNPATP]^3+C^3KA4[TNPATP]^4⋅1+L/L […]
A general note: Patch clamp records ionic current or voltage across a cell membrane.

Setting [3] is: Full MWC model, median estimate.
Where [4] appears, read: Single-site (single-binding) model.

The structures appear in SMILES notation. Values joined by “and” are separate entries in the source; they are usually repeats but may differ in a detail not shown here. Equal entries are not always repeated. Where two headings read alike, the source gives them in different places.

T1 sequence (Q14654 whole entry): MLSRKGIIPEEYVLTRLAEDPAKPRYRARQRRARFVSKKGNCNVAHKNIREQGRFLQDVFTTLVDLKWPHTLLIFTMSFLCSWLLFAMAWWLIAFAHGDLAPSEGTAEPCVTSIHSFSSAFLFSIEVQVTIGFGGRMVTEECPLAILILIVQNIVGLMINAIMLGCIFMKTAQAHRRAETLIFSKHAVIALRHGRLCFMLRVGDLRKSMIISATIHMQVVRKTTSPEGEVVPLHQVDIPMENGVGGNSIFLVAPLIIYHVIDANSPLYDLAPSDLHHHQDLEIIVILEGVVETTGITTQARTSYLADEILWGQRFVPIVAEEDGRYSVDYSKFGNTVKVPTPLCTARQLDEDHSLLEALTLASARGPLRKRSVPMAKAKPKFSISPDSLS
T1 sequence (Q09428 whole entry partner): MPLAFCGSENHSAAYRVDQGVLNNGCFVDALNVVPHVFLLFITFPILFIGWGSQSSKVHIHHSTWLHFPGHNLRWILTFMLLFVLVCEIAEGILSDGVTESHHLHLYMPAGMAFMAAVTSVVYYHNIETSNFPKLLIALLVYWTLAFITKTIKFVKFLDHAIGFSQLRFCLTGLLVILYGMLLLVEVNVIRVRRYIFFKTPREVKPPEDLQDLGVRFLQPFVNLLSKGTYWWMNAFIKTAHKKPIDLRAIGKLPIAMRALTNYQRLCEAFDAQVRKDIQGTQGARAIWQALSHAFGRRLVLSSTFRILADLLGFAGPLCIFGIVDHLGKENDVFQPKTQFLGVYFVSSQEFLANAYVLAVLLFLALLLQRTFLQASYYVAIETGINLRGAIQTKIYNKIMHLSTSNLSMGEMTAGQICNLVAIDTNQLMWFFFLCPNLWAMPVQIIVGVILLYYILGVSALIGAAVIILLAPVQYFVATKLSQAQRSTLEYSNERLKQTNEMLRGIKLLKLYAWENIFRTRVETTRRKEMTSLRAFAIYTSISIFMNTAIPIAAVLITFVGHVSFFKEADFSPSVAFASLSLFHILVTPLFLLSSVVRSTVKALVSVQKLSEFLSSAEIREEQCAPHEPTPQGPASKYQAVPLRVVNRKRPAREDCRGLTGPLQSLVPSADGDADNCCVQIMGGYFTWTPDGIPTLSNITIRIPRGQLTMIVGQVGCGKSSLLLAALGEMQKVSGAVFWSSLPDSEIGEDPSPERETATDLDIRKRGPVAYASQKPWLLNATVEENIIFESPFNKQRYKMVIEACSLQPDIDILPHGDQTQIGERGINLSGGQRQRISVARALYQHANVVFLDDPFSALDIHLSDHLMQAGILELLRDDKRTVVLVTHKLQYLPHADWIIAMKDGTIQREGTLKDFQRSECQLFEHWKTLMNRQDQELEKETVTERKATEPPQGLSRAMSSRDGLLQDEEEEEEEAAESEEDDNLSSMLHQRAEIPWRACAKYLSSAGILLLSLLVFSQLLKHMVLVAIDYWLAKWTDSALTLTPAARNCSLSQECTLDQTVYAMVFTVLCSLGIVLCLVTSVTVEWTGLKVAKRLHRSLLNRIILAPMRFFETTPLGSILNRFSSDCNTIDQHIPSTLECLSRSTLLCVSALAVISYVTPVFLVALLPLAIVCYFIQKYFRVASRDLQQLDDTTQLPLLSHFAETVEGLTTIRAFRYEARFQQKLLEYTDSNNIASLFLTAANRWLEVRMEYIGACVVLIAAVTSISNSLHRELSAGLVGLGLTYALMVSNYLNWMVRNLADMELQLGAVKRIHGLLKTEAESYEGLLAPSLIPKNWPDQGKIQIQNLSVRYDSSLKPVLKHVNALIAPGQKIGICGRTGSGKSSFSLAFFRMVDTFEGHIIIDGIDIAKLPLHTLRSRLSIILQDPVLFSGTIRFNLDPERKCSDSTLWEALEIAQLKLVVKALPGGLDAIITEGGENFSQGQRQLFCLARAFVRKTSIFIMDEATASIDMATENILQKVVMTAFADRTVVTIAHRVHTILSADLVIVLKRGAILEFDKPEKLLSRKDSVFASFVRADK

Regarding `Nc1ncnc2c1ncn2[C@@H]1O[C@H](COP(=O)(O)OP(=O)(O)OP(=O)(O)O)[C@H]2OC3(O[C@H]21)C([N+](=O)[O-])=CC(=[N+]([O-])[O-])C=C3[N+](=O)[O-]` (stereo partly shown) [TNP-ATP, trinitrophenyl-ATP], the “h (Hill coefficient) fluorescence quenching” value at Kir6.2-GFP + SUR1 [1] is listed as 0.87. The Emax at Kir6.2-GFP + SUR1 [1] (fraction) was found to be 100%. In addition, on Kir6.2-GFP + SUR1 [1] (n = 9), the EC50 is 77.7 µM and 77.6 µM. For the same compound, at Kir6.2-GFP + SUR1 [2] (Full MWC model, PCF, inhibitory site on Kir6.2), the KA was 21000 M⁻¹. Besides, the Kd at Kir6.2-GFP + SUR1 [2] (Full MWC model, from KA, read-out: KD) is 47.9 µM and 48 µM; on Kir6.2-GFP + SUR1 [2] (Negative cooperativity model, read-out: KA (intrinsic binding affinity to the closed state) (converted)), 15.1 µM; at Kir6.2-GFP + SUR1 [2] (Single-site (single-binding) model, read-out: KA (intrinsic binding affinity to the closed state) (converted)), 46.8 µM. The L on Kir6.2-GFP + SUR1 [2] (Full MWC model, linear value) was determined as 0.09. For the same compound, the “D (factor by which nucleotide binding favours channel closure)” value at Kir6.2-GFP + SUR1 [2] (setting [3]) was 0.04; at Kir6.2-GFP + SUR1 [2] (Negative cooperativity model), 0.15; on Kir6.2-GFP + SUR1 [2] (setting [4]), 0.05. Besides, the “L (unliganded open-closed equilibrium constant)” value at Kir6.2-GFP + SUR1 [2] (setting [3]) is −1.05 log10; at Kir6.2-GFP + SUR1 [2] (Negative cooperativity model) it was −0.42 log10; at Kir6.2-GFP + SUR1 [2] (setting [4]) it was −1.06 log10. In addition, the Popen at Kir6.2-GFP + SUR1 [2] (Full MWC model, unliganded, from L) is 0.08. The “C (binding cooperativity between Kir6.2 subunits)” value at Kir6.2-GFP + SUR1 [2] (Negative cooperativity model) was 0.17.

The values are drawn from publication PMC7004565, “Nucleotide inhibition of the pancreatic ATP-sensitive K^+ channel explored with patch-clamp fluorometry” (eLife, 2020).
